Experimental data published in paper PMC7782793, “Hydroxamic acid-modified peptide microarrays for profiling isozyme-selective interactions and inhibition of histone deacetylases” (Nature Communications, 2021).
Where “and” joins values, the source holds several entries; their conditions need not be identical. Identical values can stand only once. Marks after values point to notes of the source that are not given here. Non-standard residues stand in square brackets, D forms with d. Residues, ends and D or L forms follow the SMILES beside them. *: point of attachment. Asu = N[C@@H](CCCCCC(=O)O)C(=O)O; NHOH = ON*

Legend:
HDAC2 [1] = molecular target: T1, HDAC2 (Homo sapiens, UniProt Q92769); experiment: Recombinant HDAC µSPOT microarray binding assay;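 further: Cellulose-bound peptide spots on slides incubated with six HDAC enzyme concentrations, binding intensity read, four-parameter variable-slope fit, EC50 is enzyme concentration giving half-maximal binding, in HEPES buffer pH 7.4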
T1 construct: HDAC2 (full length, C-terminal His tag, BPS Bioscience, cat. #: 50002); purchased BPS Bioscience 50002
T1 sequence (Q92769 whole entry): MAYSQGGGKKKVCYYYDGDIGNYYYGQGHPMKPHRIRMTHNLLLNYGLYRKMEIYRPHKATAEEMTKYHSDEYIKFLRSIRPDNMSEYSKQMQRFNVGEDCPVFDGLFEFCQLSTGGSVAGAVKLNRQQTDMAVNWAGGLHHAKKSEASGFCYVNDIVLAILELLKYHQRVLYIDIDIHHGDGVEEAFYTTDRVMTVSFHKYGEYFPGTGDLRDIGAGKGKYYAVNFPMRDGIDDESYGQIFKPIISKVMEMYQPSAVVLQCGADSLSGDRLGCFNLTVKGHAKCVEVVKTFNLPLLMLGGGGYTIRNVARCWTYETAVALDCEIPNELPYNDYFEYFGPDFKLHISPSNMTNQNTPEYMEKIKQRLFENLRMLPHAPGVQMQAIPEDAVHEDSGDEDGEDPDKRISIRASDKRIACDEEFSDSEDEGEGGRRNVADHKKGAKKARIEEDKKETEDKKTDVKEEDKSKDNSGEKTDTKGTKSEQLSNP
Experimental: Experiments were performed twice, data were obtained with Array Analyze software (Active Motif), and data analysis and representation were performed with the GraphPad Prism 7 software. Outliers were curated manually and data were fitted to nonlinear regression [log(agonist) vs. response—variable slope (four parameters)]. […] Non-sigmoidal curves were denoted as not determined (N.D.) The pEC50 values were determined as the concentration of HDAC enzyme required for half-maximal binding signal.

HDAC3/NCoR2 = molecular target: T2, HDAC3/NCoR2 (Homo sapiens, UniProt O15379); experiment: HDAC inhibition assay (fluorogenic, Ac-Leu-Gly-Lys(Ac)-AMC); assay type: biochemical; conditions: for HDAC3 dose-response data (relative enzyme activity), Fig. 6 + S. Fig. 10: duplicate columns
T2 construct: HDAC3/NCoR2 (full length, C-terminal His tag, NCoR2 N-terminal GST tag); purchased BPS Bioscience 50003
T2 sequence (O15379 whole entry): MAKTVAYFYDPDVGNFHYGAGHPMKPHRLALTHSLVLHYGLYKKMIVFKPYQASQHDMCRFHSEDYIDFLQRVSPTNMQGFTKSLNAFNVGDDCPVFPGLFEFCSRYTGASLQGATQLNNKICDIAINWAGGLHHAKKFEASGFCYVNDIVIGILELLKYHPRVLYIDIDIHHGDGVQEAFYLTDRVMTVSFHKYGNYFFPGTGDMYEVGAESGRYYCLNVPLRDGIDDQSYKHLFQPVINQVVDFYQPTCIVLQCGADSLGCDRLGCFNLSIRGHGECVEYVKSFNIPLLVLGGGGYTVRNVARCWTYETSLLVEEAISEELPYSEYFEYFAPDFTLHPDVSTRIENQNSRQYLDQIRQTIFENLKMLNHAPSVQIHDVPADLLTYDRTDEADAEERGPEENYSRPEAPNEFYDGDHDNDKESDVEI
T2 sequence (Q9Y618 389-480 partner limits assumed): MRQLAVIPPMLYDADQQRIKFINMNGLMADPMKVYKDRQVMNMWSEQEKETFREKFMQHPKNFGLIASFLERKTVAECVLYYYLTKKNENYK

HDAC8 = molecular target: T3, HDAC8 (Homo sapiens, UniProt Q9BY41); experiment: HDAC inhibition assay (fluorogenic, Ac-Leu-Gly-Lys(Tfa)-AMC); assay type: biochemical; conditions: for HDAC8 dose-response data (relative enzyme activity, replicate values), Fig. 6 + S. Fig. 10: two replicate columns per inhibitor; for HDAC8 dose-response data (relative enzyme activity), Fig. 6 + S. Fig. 10: duplicate columns
T3 construct: HDAC8 (full length, C-terminal His tag, BPS Bioscience, cat. #: 50008); purchased BPS Bioscience 50008
T3 sequence (Q9BY41 1-377): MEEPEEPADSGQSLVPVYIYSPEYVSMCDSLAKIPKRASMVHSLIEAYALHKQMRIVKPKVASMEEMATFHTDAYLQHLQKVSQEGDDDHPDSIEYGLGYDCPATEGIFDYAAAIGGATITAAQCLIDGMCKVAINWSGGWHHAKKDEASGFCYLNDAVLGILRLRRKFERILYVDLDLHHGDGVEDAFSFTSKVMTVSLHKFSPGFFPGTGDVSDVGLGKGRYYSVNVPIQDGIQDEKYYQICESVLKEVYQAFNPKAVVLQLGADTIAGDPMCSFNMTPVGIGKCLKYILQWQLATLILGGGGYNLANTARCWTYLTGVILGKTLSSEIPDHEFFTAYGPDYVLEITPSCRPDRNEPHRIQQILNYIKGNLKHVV

HDAC2 [2] = molecular target: T1, HDAC2; experiment: HDAC inhibition assay (fluorogenic, Ac-Leu-Gly-Lys(Ac)-AMC); assay type: biochemical; conditions: log[inhibitor(M)] -5; duplicate columns
[3] = resynthesized peptides, from Ki

CC[C@H](C)[C@H](NC(=O)[C@@H](NC(=O)[C@H](CO)NC(=O)[C@H](CCCNC(=N)N)NC(=O)[C@H](CCCCCC(=O)NO)NC(=O)[C@H](CC(N)=O)NC(=O)[C@H](Cc1ccc(O)cc1)NC(=O)[C@H](Cc1c[nH]cn1)NC(=O)[C@H](C)NC(=O)[C@H](CC(C)C)NC(=O)[C@H](CCCNC(=N)N)NC(=O)[C@H](CO)NC(=O)[C@H](C)NC(=O)[C@H](CCC(=O)O)NC(C)=O)[C@@H](C)O)C(=O)N[C@H](C(=O)N[C@@H](CO)C(=O)N[C@@H](Cc1c[nH]c2ccccc12)C(N)=O)[C@@H](C)O [11a] (Ac-EASRLAHYN[Asu](NHOH)RSTITSW-NH2)
EC50 (HDAC2 [1]): > 25.1 nM | Ki (HDAC3/NCoR2): 3.45 ± 0.02 nM | HDAC3 dose-response data (relative enzyme activity), Fig. 6 + S. Fig. 10 (HDAC3/NCoR2; log[inhibitor(M)] -4.30103): 0.8032 and 0.6973 | HDAC3 dose-response data (relative enzyme activity), Fig. 6 + S. Fig. 10 (HDAC3/NCoR2; log[inhibitor(M)] -5): 0.9208 and 1.031 | HDAC3 dose-response data (relative enzyme activity), Fig. 6 + S. Fig. 10 (HDAC3/NCoR2; log[inhibitor(M)] -5.69897): 3.115 and 3.491 | HDAC3 dose-response data (relative enzyme activity), Fig. 6 + S. Fig. 10 (HDAC3/NCoR2; log[inhibitor(M)] -6.39794): 8.97 and 10.4813 | HDAC3 dose-response data (relative enzyme activity), Fig. 6 + S. Fig. 10 (HDAC3/NCoR2; log[inhibitor(M)] -7.09691): 21.4302 and 25.3963 | HDAC3 dose-response data (relative enzyme activity), Fig. 6 + S. Fig. 10 (HDAC3/NCoR2; log[inhibitor(M)] -7.79588): 44.8111 and 52.4153 | HDAC3 dose-response data (relative enzyme activity), Fig. 6 + S. Fig. 10 (HDAC3/NCoR2; log[inhibitor(M)] -8.49485): 70.9236 and 81.6314 | HDAC3 dose-response data (relative enzyme activity), Fig. 6 + S. Fig. 10 (HDAC3/NCoR2; log[inhibitor(M)] -9.19382): 91.8976 and 96.1605 | HDAC3 dose-response data (relative enzyme activity), Fig. 6 + S. Fig. 10 (HDAC3/NCoR2; log[inhibitor(M)] -9.89279): 95.3177 and 97.0902 | HDAC3 dose-response data (relative enzyme activity), Fig. 6 + S. Fig. 10 (HDAC3/NCoR2; log[inhibitor(M)] -10,5850266520292*, whole line marked with asterisks): 96,0565351* and 98,690933* | selectivity for HDAC3 vs. HDAC8 (HDAC3/NCoR2; [3]): 63 fold and > 60 fold | selectivity for HDAC3 vs. HDACs 1 and 2 (HDAC3/NCoR2; [3]): 4 fold and ~ 4 fold | Ki (HDAC8): 216 ± 1 nM | HDAC8 dose-response data (relative enzyme activity, replicate values), Fig. 6 + S. Fig. 10 (HDAC8; Inhibitor conc [M] -8.49485 (log)): 96.1111 and 96.5276 | HDAC8 dose-response data (relative enzyme activity, replicate values), Fig. 6 + S. Fig. 10 (HDAC8; Inhibitor conc [M] -9.19382 (log)): 96.7641 and 98.5453 | HDAC8 dose-response data (relative enzyme activity, replicate values), Fig. 6 + S. Fig. 10 (HDAC8; Inhibitor conc [M] given as -7.09691 (log)): 74.7826 and 76.7416 | HDAC8 dose-response data (relative enzyme activity, replicate values), Fig. 6 + S. Fig. 10 (HDAC8; Inhibitor conc [M] given as -7.79588 (log)): 92.4501 and 93.9678 | HDAC8 dose-response data (relative enzyme activity, replicate values), Fig. 6 + S. Fig. 10 (HDAC8; Inhibitor conc [M] given as -9.89279 (log)): 96.0276 and 96.961 | HDAC8 dose-response data (relative enzyme activity, replicate values), Fig. 6 + S. Fig. 10 (HDAC8; Inhibitor conc [M] given as -10.585 (log)): 97,4443859* and 98,1506198* | HDAC8 dose-response data (relative enzyme activity), Fig. 6 + S. Fig. 10 (HDAC8; Inhibitor conc [M] -4.30103): 1.735 and 1.62 | HDAC8 dose-response data (relative enzyme activity), Fig. 6 + S. Fig. 10 (HDAC8; Inhibitor conc [M] -5): 6.862 and 6.863 | HDAC8 dose-response data (relative enzyme activity), Fig. 6 + S. Fig. 10 (HDAC8; Inhibitor conc [M] -5.69897): 19.3274 and 19.565 | HDAC8 dose-response data (relative enzyme activity), Fig. 6 + S. Fig. 10 (HDAC8; Inhibitor conc [M] -6.39794): 44.2904 and 45.2063 | HDAC2 dose-response data (relative enzyme activity), Fig. 6 + S. Fig. 10 (HDAC2 [2]): 1.895 and 2.051
